Assay results taken from PMC5947712, “High‐Throughput Kinetic Analysis for Target‐Directed Covalent Ligand Discovery” (Angewandte Chemie (International Ed. in English), 2018).

Molecular target: Cdk2(WT) (Homo sapiens, UniProt P24941)
Assay: TdCD melting temperature of acrylamide-modified Cdk2
Type: binding
Set-up: made in house; host or cells: E. coli Tuner(DE3)
Details: compound-modified Cdk2(WT), n=3
Description: GSTBCdk2" and" GSTBcyclin" A2:! Harvested! cells! were! resuspended! in! 50! mM! HEPES! buffer! (pH7.5)! containing! 150! mM! NaCl,!
10!mM!MgCl2,!2!mM!dithiothreitol!(DTT),!0.5!mg!mLR1!lysozyme,!and!0.01%!Triton!XR100!at!4!˚C!and!incubated!for!30!minutes.!
After! sonication! and! centrifugation! (40! min,! 16000! g),! the! supernatant! was! incubated! for! 1! h! with! glutathioneRSepharose!
beads,! washed! with! lysis! buffer! and! the! desired! protein! eluted! with! 10! mM! GSH! (100! mM! Tris,! pH! 8).! After! incubation! the! deR
sired! protein! was! cleaved! from! the! GST! tag! with! PreScission! protease! (100:1)! at! 4 °C! for! 4! hours,! the! cleaved! GST! tag! was!
removed! with! glutathioneRSepharose! beads.! Cdk2! was! concentrated! and! then! loaded! onto! a! Superdex! 75! (16/60)! column,!
eluting! with! 100! mM! phosphate! buffer! containing! 50! mM! DTT.! Purified! Cdk2! was! concentrated! to! 10! mg! mLR1!and! stored! at!–
80! ˚C.! Cyclin! A2! was! purified! by! glutathioneRSepharose! affinity! as! described! above! with! the! following! amendments:! 100! mM!
MgCl2!was! added! after! GST! cleavage! to! minimise! protein! aggregation! and! gel! filtration! was! performed! with! 50! mM! HEPES!
buffer! (pH! 7.5)! containing! 150! mM! NaCl,! 100! mM! MgCl2,! 2! mM! DTT.! ! […]
labelling! reached! completion! (as! monitored! by! fluorescence! quench! assay! and/or! intact! protein! mass! spectrometry).! […]

| Tm ± s.e.m | SMILES |
| --- | --- |
| 48.95 ± 0.25 ˚C | C=CC(=O)N1CCN(C(=O)OC(C)(C)C)c2ccccc21 [Acrylamide 1] |
| 50.56 ± 0.24 ˚C | C=CC(=O)N1CCN(C(=O)OC)c2ccccc21 [Acrylamide 2] |
